Test results reported in ChEMBL document CHEMBL2321840, “Synthesis and structure-activity relationships of indazole arylsulfonamides as allosteric CC-chemokine receptor 4 (CCR4) antagonists” (J Med Chem, 2013).
Converted amounts (≈) assume the structure as drawn.

Tests used:
HepG2 = test: Cytotoxicity in human HepG2 cells assessed as effect on cell membrane; assay type: cell-based
[1] = Kinetic solubility of the compound in PBS using DMSO at pH 7.4 by NMR analysis; assay type: physicochemical; details: read-out: Kinetic_solubility

In the case of `COc1cccc2c1c(NS(=O)(=O)c1ccc(Cl)s1)nn2Cc1cccc(CNC(=O)C(C)(C)O)c1`, the Activity (HepG2) was “Non-toxic” and the solubility kinetic [1] was 0.27 mg/mL (≈ 492 µM).
